{"source": "patent US20110001093A1", "about": "“FULLERENE DERIVATIVE” (SUMITOMO CHEMICAL COMPANY LIMITED, priority 2007, published 2011)"}
{"test": "Evaluation of solubility in xylene (visual observation)", "assay_type": "physicochemical", "conditions": "stirred by magnetic stirrer 10 minutes, visually observed"}
{"compound": "COCCOCCN1CC2C3=c4c5c6c7c(cc8cc9cc%10cc%11cc%12c%13c(c4c4c5c5c7c8c7c9c%10c8c%11c%13c4c8c75)=C(C3)C%12)CC62C1c1ccc(F)cc1", "note": "(stereo not shown) [Fullerene derivative C, N-methoxyethoxyethyl-2-(4-fluorophenyl) fulleropyrrolidine]", "Solubility of a 1 wt % xylene solution": "Dissolved"}
{"compound": "COCCOCCN1CC2C3=c4c5c6c7c(cc8cc9cc%10cc%11cc%12c%13c(c4c4c5c5c7c8c7c9c%10c8c%11c%13c4c8c75)=C(C3)C%12)CC62C1c1c(F)c(F)c(F)c(F)c1F", "note": "(stereo not shown) [Fullerene derivative B, N-methoxyethoxyethyl-2-(perfluorophenyl)fulleropyrrolidine]", "Solubility of a 1 wt % xylene solution": "Dissolved"}
{"compound": "COCCOCCN1CC2C3=c4c5c6c7c(cc8cc9cc%10cc%11cc%12c%13c(c4c4c5c5c7c8c7c9c%10c8c%11c%13c4c8c75)=C(C3)C%12)CC62C1CCc1ccccc1", "note": "(stereo not shown) [Fullerene derivative G, N-methoxyethoxyethyl-2-(2-phenylethyl)fulleropyrrolidine]", "Solubility of a 1 wt % xylene solution": "Dissolved"}
{"compound": "COCCOCCN1CC2C3=c4c5c6c7c(cc8cc9cc%10cc%11cc%12c%13c(c4c4c5c5c7c8c7c9c%10c8c%11c%13c4c8c75)=C(C3)C%12)CC62C1c1ccc(C)cc1", "note": "(stereo not shown) [Fullerene derivative D, N-methoxyethoxyethyl-2-(4-methylphenyl)fulleropyrrolidine]", "Solubility of a 1 wt % xylene solution": "Dissolved"}
{"compound": "COCCOCCN1CC2C3=c4c5c6c7c(cc8cc9cc%10cc%11cc%12c%13c(c4c4c5c5c7c8c7c9c%10c8c%11c%13c4c8c75)=C(C3)C%12)CC62C1c1ccc(C(F)(F)F)cc1", "note": "(stereo not shown) [Fullerene derivative F]", "Solubility of a 1 wt % xylene solution": "Dissolved"}
{"compound": "COCCOCCN1CC2C3=c4c5c6c7c(cc8cc9cc%10cc%11cc%12c%13c(c4c4c5c5c7c8c7c9c%10c8c%11c%13c4c8c75)=C(C3)C%12)CC62C1c1ccccc1", "note": "(stereo not shown) [Fullerene derivative E, N-methoxyethoxyethyl-2-phenyl-fulleropyrrolidine]", "Solubility of a 1 wt % xylene solution": "Dissolved"}
{"compound": "COCCOCCN1CC2C3=c4c5c6c7c(cc8cc9cc%10cc%11cc%12c%13c(c4c4c5c5c7c8c7c9c%10c8c%11c%13c4c8c75)=C(C3)C%12)CC62C1c1cccc2ccccc12", "note": "(stereo not shown) [Fullerene derivative A, N-methoxyethoxyethyl-2-(1-naphthyl)fulleropyrrolidine]", "Solubility of a 1 wt % xylene solution": "Dissolved"}
